The values that follow come from the supplement of paper PMC10307832.

Experiment in all cases: relative viability (nuclei count vs DMSO), 5 days (fraction); higher = more cells survive
Compound in the experiment “kb NB 142-70 + Lapatinib”: C1CSC2=C(C(=O)N1)SC3=C2C=C(C=C3)O [kb NB 142-70] + CS(=O)(=O)CCNCc1ccc(-c2ccc3ncnc(Nc4ccc(OCc5cccc(F)c5)c(Cl)c4)c3c2)o1 [Lapatinib] (partner 2 µM)
An outline of the steps: (§1)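 After 5 days of treatment, lung cancer cells in 1536-well plates were fixed and stained in a single step (final 0.05% Triton X-100, 1% formaldehyde, 1 ug/ml Hoechst) and their nuclei counted on 4× images. Treatment had been applied by pin tool the day after seeding as one drug alone or as a fixed anchor-drug dose with five library-drug doses (not always all listed) in √10 steps. Relative viability is the nuclei count of treated wells divided by that of vehicle wells, and values are medians of duplicate plates.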

Compound in experiment [1]: NCC(=O)Nc1ccc(-n2nc(C(F)(F)F)cc2-c2ccc3c(ccc4ccccc43)c2)cc1 + N=C(N)NC(=N)NCCc1ccccc1 [Phenformin] (partner 250 µM)
The method, boiled down:
as §1

Compound in experiment [2]: NCC(=O)Nc1ccc(-n2nc(C(F)(F)F)cc2-c2ccc3c(ccc4ccccc43)c2)cc1 + Cc1nc(Nc2ncc(C(=O)Nc3c(C)cccc3Cl)s2)cc(N2CCN(CCO)CC2)n1 [Dasatinib] (partner 0.075 µM)
The method, boiled down: as §1

Compound in experiment [3]: NCC(=O)Nc1ccc(-n2nc(C(F)(F)F)cc2-c2ccc3c(ccc4ccccc43)c2)cc1 + CC(=O)c1c(C)c2cnc(Nc3ccc(N4CCNCC4)cn3)nc2n(C2CCCC2)c1=O [Palbociclib] (partner 0.5 µM)
The method, boiled down:
as §1

NCI-H1915: the relative viability in the experiment with kb NB 142-70 + Lapatinib (first compound 0.1 µM) came out at 1.05; in the experiment with kb NB 142-70 + Lapatinib (first compound 1 µM) it was 1; with kb NB 142-70 + Lapatinib (first compound 3.162 µM), 0.845; in experiment [1] (first compound 0.02 µM) it was 0.367; in experiment [1] (first compound 0.06325 µM), 0.364; in experiment [1] (first compound 0.2 µM) it was 0.371. In addition, the relative viability turned out to be 0.349 in experiment [1] (first compound 0.6325 µM); 0.369 in experiment [1] (first compound 2 µM); 0.26 in experiment [2] (first compound 0.02 µM); 0.338 in experiment [2] (first compound 0.06325 µM); 0.341 in experiment [2] (first compound 0.2 µM); 0.318 in experiment [2] (first compound 0.6325 µM). Moreover, the relative viability in experiment [2] (first compound 2 µM) stood at 0.363; in experiment [3] (first compound 0.02 µM) it was 0.535; in experiment [3] (first compound 0.06325 µM) it was 0.509; in experiment [3] (first compound 0.2 µM), 0.517; in experiment [3] (first compound 0.6325 µM), 0.507; in experiment [3] (first compound 2 µM) it was 0.541.
Regarding NCI-H2405, the relative viability with kb NB 142-70 + Lapatinib (first compound 0.1 µM) is 1.11; in the experiment with kb NB 142-70 + Lapatinib (first compound 1 µM), 1.07; in the experiment with kb NB 142-70 + Lapatinib (first compound 3.162 µM), 0.896; in experiment [1] (first compound 0.02 µM) it was 0.402; in experiment [1] (first compound 0.06325 µM), 0.399; in experiment [1] (first compound 0.2 µM), 0.416. The relative viability in experiment [1] (first compound 0.6325 µM) came out at 0.38; in experiment [1] (first compound 2 µM), 0.475; in experiment [2] (first compound 0.02 µM) it was 0.225; in experiment [2] (first compound 0.06325 µM), 0.202; in experiment [2] (first compound 0.2 µM) it was 0.185; in experiment [2] (first compound 0.6325 µM) it was 0.201. Besides, the relative viability in experiment [2] (first compound 2 µM) amounted to 0.221; in experiment [3] (first compound 0.02 µM), 0.501; in experiment [3] (first compound 0.06325 µM), 0.519; in experiment [3] (first compound 0.2 µM) it was 0.556; in experiment [3] (first compound 0.6325 µM), 0.515; in experiment [3] (first compound 2 µM), 0.517.
In the case of NCI-H322M, the relative viability in the experiment with kb NB 142-70 + Lapatinib (first compound 0.1 µM) amounted to 0.568; with kb NB 142-70 + Lapatinib (first compound 1 µM) it was 0.646; with kb NB 142-70 + Lapatinib (first compound 3.162 µM), 0.617; in experiment [1] (first compound 0.02 µM) it was 0.808; in experiment [1] (first compound 0.06325 µM), 0.739; in experiment [1] (first compound 0.2 µM), 0.766. The relative viability in experiment [1] (first compound 0.6325 µM) was 0.747; in experiment [1] (first compound 2 µM), 0.811; in experiment [2] (first compound 0.02 µM) it was 0.268; in experiment [2] (first compound 0.06325 µM), 0.266; in experiment [2] (first compound 0.2 µM) it was 0.251; in experiment [2] (first compound 0.6325 µM) it was 0.271. Moreover, the relative viability in experiment [2] (first compound 2 µM) was determined as 0.261; in experiment [3] (first compound 0.02 µM), 0.51; in experiment [3] (first compound 0.06325 µM), 0.502; in experiment [3] (first compound 0.2 µM) it was 0.388; in experiment [3] (first compound 0.6325 µM) it was 0.505; in experiment [3] (first compound 2 µM), 0.493.
As to NCI-H2170, the relative viability with kb NB 142-70 + Lapatinib (first compound 0.1 µM) came out at 0.295; with kb NB 142-70 + Lapatinib (first compound 1 µM) it was 0.305; with kb NB 142-70 + Lapatinib (first compound 3.162 µM) it was 0.258; in experiment [1] (first compound 0.02 µM), 0.397; in experiment [1] (first compound 0.06325 µM), 0.446; in experiment [1] (first compound 0.2 µM), 0.429. Moreover, the relative viability in experiment [1] (first compound 0.6325 µM) worked out at 0.438; in experiment [1] (first compound 2 µM), 0.457; in experiment [2] (first compound 0.02 µM), 0.522; in experiment [2] (first compound 0.06325 µM) it was 0.695; in experiment [2] (first compound 0.2 µM) it was 0.494; in experiment [2] (first compound 0.6325 µM) it was 0.581. Further, the relative viability in experiment [2] (first compound 2 µM) turned out to be 0.694; in experiment [3] (first compound 0.02 µM) it was 0.374; in experiment [3] (first compound 0.06325 µM) it was 0.41; in experiment [3] (first compound 0.2 µM), 0.391; in experiment [3] (first compound 0.6325 µM) it was 0.38; in experiment [3] (first compound 2 µM), 0.355.
In the case of NCI-H1395, the relative viability is 1.23 with kb NB 142-70 + Lapatinib (first compound 0.1 µM); 1.14 with kb NB 142-70 + Lapatinib (first compound 1 µM); 0.816 with kb NB 142-70 + Lapatinib (first compound 3.162 µM); 0.5 in experiment [1] (first compound 0.02 µM); 0.422 in experiment [1] (first compound 0.06325 µM); 0.434 in experiment [1] (first compound 0.2 µM). In addition, the relative viability in experiment [1] (first compound 0.6325 µM) came to 0.469; in experiment [1] (first compound 2 µM) it was 0.475; in experiment [2] (first compound 0.02 µM), 0.442; in experiment [2] (first compound 0.06325 µM), 0.422; in experiment [2] (first compound 0.2 µM), 0.358; in experiment [2] (first compound 0.6325 µM) it was 0.444. For the same cell line, the relative viability in experiment [2] (first compound 2 µM) amounted to 0.39; in experiment [3] (first compound 0.02 µM), 0.702; in experiment [3] (first compound 0.06325 µM), 0.678; in experiment [3] (first compound 0.2 µM), 0.617; in experiment [3] (first compound 0.6325 µM), 0.621; in experiment [3] (first compound 2 µM), 0.614.
In the case of NCI-H358, the relative viability was 0.45 with kb NB 142-70 + Lapatinib (first compound 0.1 µM); 0.396 in the experiment with kb NB 142-70 + Lapatinib (first compound 1 µM); 0.161 in the experiment with kb NB 142-70 + Lapatinib (first compound 3.162 µM); 0.335 in experiment [1] (first compound 0.02 µM); 0.319 in experiment [1] (first compound 0.06325 µM); 0.293 in experiment [1] (first compound 0.2 µM). Besides, the relative viability in experiment [1] (first compound 0.6325 µM) is 0.365; in experiment [1] (first compound 2 µM) it was 0.343; in experiment [2] (first compound 0.02 µM) it was 0.165; in experiment [2] (first compound 0.06325 µM), 0.138; in experiment [2] (first compound 0.2 µM), 0.153; in experiment [2] (first compound 0.6325 µM), 0.173. Also, the relative viability in experiment [2] (first compound 2 µM) amounted to 0.189; in experiment [3] (first compound 0.02 µM), 0.158; in experiment [3] (first compound 0.06325 µM) it was 0.111; in experiment [3] (first compound 0.2 µM), 0.136; in experiment [3] (first compound 0.6325 µM), 0.122; in experiment [3] (first compound 2 µM), 0.145.
Consider NCI-H838, for which the relative viability came out at 0.934 with kb NB 142-70 + Lapatinib (first compound 0.1 µM); 0.913 in the experiment with kb NB 142-70 + Lapatinib (first compound 1 µM); 1.03 in the experiment with kb NB 142-70 + Lapatinib (first compound 3.162 µM); 0.51 in experiment [1] (first compound 0.02 µM); 0.661 in experiment [1] (first compound 0.06325 µM); 0.634 in experiment [1] (first compound 0.2 µM). Moreover, the relative viability in experiment [1] (first compound 0.6325 µM) is 0.548; in experiment [1] (first compound 2 µM) it was 0.497; in experiment [2] (first compound 0.02 µM) it was 0.233; in experiment [2] (first compound 0.06325 µM), 0.305; in experiment [2] (first compound 0.2 µM), 0.273; in experiment [2] (first compound 0.6325 µM), 0.302. Besides, the relative viability was found to be 0.285 in experiment [2] (first compound 2 µM); 0.228 in experiment [3] (first compound 0.02 µM); 0.237 in experiment [3] (first compound 0.06325 µM); 0.224 in experiment [3] (first compound 0.2 µM); 0.192 in experiment [3] (first compound 0.6325 µM); 0.213 in experiment [3] (first compound 2 µM).
As for CAL-12T, the relative viability with kb NB 142-70 + Lapatinib (first compound 0.1 µM) stood at 0.673; with kb NB 142-70 + Lapatinib (first compound 1 µM) it was 0.673; with kb NB 142-70 + Lapatinib (first compound 3.162 µM) it was 0.496; in experiment [1] (first compound 0.02 µM), 0.572; in experiment [1] (first compound 0.06325 µM), 0.601; in experiment [1] (first compound 0.2 µM) it was 0.586. For the same cell line, the relative viability in experiment [1] (first compound 0.6325 µM) worked out at 0.576; in experiment [1] (first compound 2 µM), 0.627; in experiment [2] (first compound 0.02 µM), 0.494; in experiment [2] (first compound 0.06325 µM), 0.691; in experiment [2] (first compound 0.2 µM), 0.454; in experiment [2] (first compound 0.6325 µM), 0.425. Besides, the relative viability in experiment [2] (first compound 2 µM) worked out at 0.495; in experiment [3] (first compound 0.02 µM), 0.527; in experiment [3] (first compound 0.06325 µM) it was 0.481; in experiment [3] (first compound 0.2 µM), 0.462; in experiment [3] (first compound 0.6325 µM), 0.588; in experiment [3] (first compound 2 µM), 0.423.
